Tests used:
[1] = molecular target: T1, recombinant human 5-HT2A receptor (Homo sapiens, UniProt P28223); experiment: Radioligand binding to serotonin receptor 5-HT2A ([3H] Ketanserin, CHO-K1 membranes); conditions: 10 µM ligand
T1 construct: expressed in transfected cells; host or cells: CHO-K1
Text: 9-C. […] J Neurochem. […] Ketanserin is used as positive control.

[2] = molecular target: T2, recombinant human 5-HT2B receptor (Homo sapiens, UniProt P41595); experiment: Radioligand binding to serotonin receptor 5-HT2B ([3H] Lysergic acid diethylamide, CHO-K1 membranes); conditions: 10 µM ligand
T2 construct: expressed in transfected cells; host or cells: CHO-K1
T2 sequence (P41595 whole entry): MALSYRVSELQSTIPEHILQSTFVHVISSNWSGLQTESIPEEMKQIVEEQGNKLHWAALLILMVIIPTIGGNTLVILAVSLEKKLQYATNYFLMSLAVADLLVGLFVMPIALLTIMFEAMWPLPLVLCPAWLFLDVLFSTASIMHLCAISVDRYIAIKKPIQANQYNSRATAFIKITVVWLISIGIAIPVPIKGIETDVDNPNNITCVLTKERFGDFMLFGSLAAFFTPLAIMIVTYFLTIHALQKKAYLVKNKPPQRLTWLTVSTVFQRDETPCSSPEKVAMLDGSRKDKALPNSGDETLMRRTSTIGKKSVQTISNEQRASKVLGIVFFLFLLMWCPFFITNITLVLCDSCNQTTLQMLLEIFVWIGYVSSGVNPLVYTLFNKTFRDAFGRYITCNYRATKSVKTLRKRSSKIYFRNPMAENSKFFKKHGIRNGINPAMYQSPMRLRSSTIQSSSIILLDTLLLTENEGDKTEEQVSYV
Procedure: For this purpose membrane species are prepared from CHO-K1 cells comprising recombinant human 5-HT2B receptor by homogenization of recombinant cells in glass homogenizer with the subsequent separation of plasmatic membranes from cell nuclei, mitochondrias and cell wreckages by differential centrifugation. […] After incubation the samples are filtered in vacuo on glass-microfiber filters G/F (Millipor, USA), filters are washed three times with cold solution of medium and radioactivity is measured by scintillation counter MicroBeta 340 (Perkin Elmer, USA). […] Ketanserin is used as positive control. The tested compounds' binding to the receptor is determined by their ability to displace the radioligand and is expressed in percent of displacement (%I). Values of %I are calculated according to the following equation: %I = (TA-CA)/(TA-NA)*100, [formula] wherein: TA - is the overall radioactivity in the presence of radioligand only, CA - is the radioactivity in the presence of radioligand and tested compound and NA - is the radioactivity in the presence of radioligand and Serotonin (10 µM).

male mice of BALB/c line = experiment: Passive Avoidance of mice in the Shuttle Chamber, memory disturbed by Scopolamine; type: in vivo; conditions: Scopolamine 0.3 mg/kg, injected 30 minutes before training; figures 1-3
Procedure: Example 14. […] A shuttle chamber (Ugo Basile, Italy) consisted of two sections was used. […] The sections were connected through a hole which could be overlapped by a vertical door. The floor was made of transverse metal bars on which DC current impulses could be fed. Experiments were carried out in aged male mice of BALB/c line weighing 20-24 grams.
Each group consisted of at least 8 animals. Animal was placed in light section, and latent period of the first entry into dark chamber was registered. Then the vertical door was closed and the animal was punished by 0.6 mA DC current for 3 seconds. After that it was taken back to its homecage. In 22-24 hours the same animal was placed again in light section of the shuttle chamber and latent period of its first entry into dark section, the total time of its stay in light section, and the number of entries into dark section, were registered. Each monitoring lasted for 5 minutes.
Testing was carried out during the day time in isolated laboratory using white noise at level of about 70 decibel above human hearing threshold.
Scopolamine causes the disturbance of training (memory loss) that results in […].

[3] = molecular target: T3, recombinant human 5-HT2C receptor (Homo sapiens, UniProt P28335); experiment: Radioligand binding to serotonin receptor 5-HT2C ([3H] Mesulergine, CHO-K1 membranes); conditions: 10 µM ligand
T3 construct: expressed in transfected cells; host or cells: CHO-K1
T3 sequence (P28335 33-458): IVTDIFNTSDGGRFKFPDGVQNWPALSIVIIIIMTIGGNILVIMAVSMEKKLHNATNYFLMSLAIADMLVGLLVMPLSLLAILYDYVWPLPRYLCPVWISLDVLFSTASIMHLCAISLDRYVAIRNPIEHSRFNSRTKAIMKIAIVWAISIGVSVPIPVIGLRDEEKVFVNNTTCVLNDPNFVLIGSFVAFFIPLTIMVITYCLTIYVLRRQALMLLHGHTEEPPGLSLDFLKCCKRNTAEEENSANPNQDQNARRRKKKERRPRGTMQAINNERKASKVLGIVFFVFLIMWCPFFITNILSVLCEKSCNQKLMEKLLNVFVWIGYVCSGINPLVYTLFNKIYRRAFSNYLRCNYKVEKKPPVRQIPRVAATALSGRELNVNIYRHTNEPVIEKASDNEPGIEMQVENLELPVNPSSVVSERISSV
Text: J Neurochem. 69: 1449 - 1458, 1997]. […] SB242084 is used as positive control.

[4] = molecular target: T4, serotonin receptor 5-HT1B (Rattus norvegicus, UniProt P28564); experiment: Radioligand binding to serotonin receptor 5-HT1B ([125I] cyanopindolol, rat brain cortex membranes); conditions: 10 µM ligand
T4 construct: membrane species are prepared from rat brains (Wistar) by homogenization of species of rat brain-cortices; from tissue; host or cells: rat (Wistar) brain cortex
T4 sequence (P28564 whole entry): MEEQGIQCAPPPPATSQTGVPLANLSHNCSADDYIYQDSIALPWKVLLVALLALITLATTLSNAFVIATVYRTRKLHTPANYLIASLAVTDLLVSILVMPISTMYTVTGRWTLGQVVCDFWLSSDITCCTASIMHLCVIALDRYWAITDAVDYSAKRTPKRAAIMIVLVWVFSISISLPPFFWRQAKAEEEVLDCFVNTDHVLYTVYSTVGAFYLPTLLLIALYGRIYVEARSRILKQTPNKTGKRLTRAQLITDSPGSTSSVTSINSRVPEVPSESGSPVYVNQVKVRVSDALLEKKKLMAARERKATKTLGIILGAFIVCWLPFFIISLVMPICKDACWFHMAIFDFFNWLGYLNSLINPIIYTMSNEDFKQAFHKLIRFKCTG
Text: Serotonin is used as positive control.

human H1 receptor = molecular target: T5, human H1 receptor (Homo sapiens, UniProt P35367); experiment: Radioligand binding to histamine receptor H1 ([3H] Pyrilamine, CHO-K1 membranes); conditions: 10 µM ligand; 10 µM
T5 construct: expressed in transfected cells; host or cells: CHO-K1
T5 sequence (P35367 whole entry): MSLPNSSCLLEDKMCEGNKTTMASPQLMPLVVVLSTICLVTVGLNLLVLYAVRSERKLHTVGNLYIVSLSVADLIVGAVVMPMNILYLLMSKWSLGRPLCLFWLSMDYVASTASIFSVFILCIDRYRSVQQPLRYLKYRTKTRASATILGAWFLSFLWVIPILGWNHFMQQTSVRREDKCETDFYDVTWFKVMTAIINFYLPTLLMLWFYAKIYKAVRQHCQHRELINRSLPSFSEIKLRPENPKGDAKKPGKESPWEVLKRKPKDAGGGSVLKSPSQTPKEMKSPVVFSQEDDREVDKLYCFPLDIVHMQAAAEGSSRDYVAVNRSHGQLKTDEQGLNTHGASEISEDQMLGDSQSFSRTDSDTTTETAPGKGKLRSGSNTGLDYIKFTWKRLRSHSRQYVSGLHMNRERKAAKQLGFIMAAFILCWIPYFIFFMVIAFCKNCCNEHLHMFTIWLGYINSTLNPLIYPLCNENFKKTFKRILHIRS
Text: Biochem Biophys Res Comm. 197(3): 1601-1608, 1993]. […] Biochem Biophys Res Comm. 197(3): 1601-1608, 1993].
Pyrilamine is used as positive control.

human H2 receptor = molecular target: T6, human H2 receptor (Homo sapiens, UniProt P25021); experiment: Radioligand binding to histamine receptor H2 ([125I] Aminopotentidine, CHO-K1 membranes); conditions: 10 µM ligand
T6 construct: expressed in transfected cells; host or cells: CHO-K1
T6 sequence (P25021 whole entry): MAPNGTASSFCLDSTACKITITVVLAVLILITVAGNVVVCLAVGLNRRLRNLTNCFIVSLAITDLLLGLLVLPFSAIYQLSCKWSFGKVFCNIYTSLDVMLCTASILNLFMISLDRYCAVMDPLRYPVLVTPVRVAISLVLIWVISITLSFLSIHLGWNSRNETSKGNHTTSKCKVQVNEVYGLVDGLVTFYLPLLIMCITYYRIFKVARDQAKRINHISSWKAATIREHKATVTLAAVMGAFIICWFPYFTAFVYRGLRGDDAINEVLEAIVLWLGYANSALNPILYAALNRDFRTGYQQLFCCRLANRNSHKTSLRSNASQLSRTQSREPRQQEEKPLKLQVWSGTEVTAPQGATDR
Text: Proc Natl Acad Sci USA. 87(5): 1658-1662, 1990]. […] Proc Natl Acad Sci USA. 87(5): 1658-1662, 1990]. […] Tiotidine is used as positive control.

T1 sequence (P28223 whole entry): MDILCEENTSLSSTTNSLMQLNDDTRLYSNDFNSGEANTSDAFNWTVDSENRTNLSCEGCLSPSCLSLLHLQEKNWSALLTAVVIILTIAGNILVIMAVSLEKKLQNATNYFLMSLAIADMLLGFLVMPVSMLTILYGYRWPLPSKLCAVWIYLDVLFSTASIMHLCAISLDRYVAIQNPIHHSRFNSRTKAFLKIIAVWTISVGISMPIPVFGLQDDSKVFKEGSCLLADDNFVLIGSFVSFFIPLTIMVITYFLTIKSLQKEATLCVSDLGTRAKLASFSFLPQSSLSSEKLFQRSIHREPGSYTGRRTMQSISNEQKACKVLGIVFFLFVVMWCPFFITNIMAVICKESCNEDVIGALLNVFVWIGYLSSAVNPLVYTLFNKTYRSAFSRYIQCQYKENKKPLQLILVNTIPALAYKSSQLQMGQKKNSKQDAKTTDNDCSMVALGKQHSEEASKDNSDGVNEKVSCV

## Cc1ccc2c(c1)c1c(n2/C=C\c2ccccc2)CCN(C)C1 [1.1(6)]
[1]
  5-HT2A % inhibition: 100%
[2]
  5-HT2B % inhibition: 98%
Male mice of BALB/c line
  enhancement of memory disturbed by Scopolamine: improve memory
[3]
  5-HT2C % inhibition: 101%
[4]
  5-HT1B % inhibition: 86%

## COc1ccc2c(c1)c1c(n2CCc2ccccn2)CCN(C)C1 [1.1.2(2-4)·2HCl]
Male mice of BALB/c line
  enhancement of memory disturbed by Scopolamine: improve memory

## Cc1ccc2c(c1)c1c(n2CCc2ccc(C)nc2)CCN(C)C1 [1.1.2(4-4)·2CH3SO3H, 2,8-dimethyl-5-[2-(4-methylpyridin-3-yl)ethyl]-1,2,3,4-tetrahydro-1H-pyrido[4,3-b]indole bis-methylsulfonate]
Human H1 receptor
  Histamine receptors, % inhibition H1: 102%
Human H2 receptor; read-out: Histamine receptors, % inhibition H2
  inhibition at 10 µM: 99%

## Cc1ccc2c(c1)c1c(n2CCc2ccc(C)nc2)CCN(C)C1 [1.1.2(4-5)·1/2NDSA, 2,8-dimethyl-5-[2-(4-methylpyridin-3-yl)ethyl]-1,2,3,4-tetrahydro-1H-pyrido[4,3-b]indole naphtalene-1,5-disulfonate]
Human H2 receptor; 10 µM
  Histamine receptors, % inhibition H2: 100%

Source: patent EP2236511A2, “LIGANDS OF ALPHA-ADRENOCEPTORS AND OF DOPAMINE, HISTAMINE, IMIDAZOLINE AND SEROTONIN RECEPTORS AND THE USE THEREOF” (priority 2007, dated 2009)
